Laboratory results from ChEMBL document CHEMBL5723379, “Affinity On-target Cellular Literature for EUbOPEN Chemogenomic Library” (2024).
pIC50, pKi: −log10 of the molar value. Blank lines part the entries; values can stand above or below the molecule they belong to.

How the values were obtained:
Parameters in all cases: mode of action Inhibitor, recommended concentration 1 uM
Acid ceramidase [1] = biological target: T1, Acid ceramidase (Homo sapiens, UniProt Q13510); experiment: Affinity On-target Cellular interaction: (Inhibition of ASAH1 in A375 cell lysates overexpressing ASAH1) EUB0002722a ASAH1; format: functional, subcellular, A-375
T1 sequence (Q13510 22-142 limits assumed): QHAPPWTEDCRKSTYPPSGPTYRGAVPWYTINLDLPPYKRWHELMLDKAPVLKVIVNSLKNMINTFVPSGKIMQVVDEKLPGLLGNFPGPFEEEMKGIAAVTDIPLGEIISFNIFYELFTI
T1 sequence (Q13510 143-395 limits assumed): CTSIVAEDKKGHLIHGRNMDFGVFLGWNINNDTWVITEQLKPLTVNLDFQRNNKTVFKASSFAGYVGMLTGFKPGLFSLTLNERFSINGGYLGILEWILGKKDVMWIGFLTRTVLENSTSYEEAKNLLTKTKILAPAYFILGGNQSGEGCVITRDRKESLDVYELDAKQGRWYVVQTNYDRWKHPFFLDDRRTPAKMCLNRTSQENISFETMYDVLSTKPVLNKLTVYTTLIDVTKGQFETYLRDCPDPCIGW

[2] = biological target: Sodium/hydrogen exchanger 1 (Homo sapiens, UniProt P19634); experiment: Affinity On-target Cellular interaction: ([Na+]uptake assay, PS-120 fibroblasts) EUB0002781aCl SLC9A1; format: functional, cell-based, PS120
Sodium/hydrogen exchanger 1, sequence (P19634 whole entry): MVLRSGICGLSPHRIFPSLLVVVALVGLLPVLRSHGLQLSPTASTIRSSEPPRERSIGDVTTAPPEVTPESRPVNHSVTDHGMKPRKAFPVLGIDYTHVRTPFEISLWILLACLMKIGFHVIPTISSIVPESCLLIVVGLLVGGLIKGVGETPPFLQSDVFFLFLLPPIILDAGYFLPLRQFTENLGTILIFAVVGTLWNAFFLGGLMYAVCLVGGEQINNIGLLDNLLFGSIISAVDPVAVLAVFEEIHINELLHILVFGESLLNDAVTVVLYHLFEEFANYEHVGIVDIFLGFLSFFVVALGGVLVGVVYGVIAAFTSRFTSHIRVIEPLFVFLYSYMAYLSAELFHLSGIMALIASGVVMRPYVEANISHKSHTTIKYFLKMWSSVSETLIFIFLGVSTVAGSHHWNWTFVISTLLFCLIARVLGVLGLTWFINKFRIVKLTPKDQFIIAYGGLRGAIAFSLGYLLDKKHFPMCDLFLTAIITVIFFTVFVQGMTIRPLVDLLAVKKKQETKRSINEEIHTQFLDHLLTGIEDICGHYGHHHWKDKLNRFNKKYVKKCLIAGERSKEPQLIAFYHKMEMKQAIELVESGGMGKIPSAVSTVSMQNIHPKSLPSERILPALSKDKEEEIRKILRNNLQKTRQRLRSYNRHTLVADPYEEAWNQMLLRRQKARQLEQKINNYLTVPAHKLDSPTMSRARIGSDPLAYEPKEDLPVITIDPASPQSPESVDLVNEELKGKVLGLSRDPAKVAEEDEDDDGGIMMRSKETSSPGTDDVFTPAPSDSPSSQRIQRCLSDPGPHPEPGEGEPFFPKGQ

Dipeptidyl peptidase 2 [3] = biological target: T2, Dipeptidyl peptidase 2 (Homo sapiens, UniProt Q9UHL4); experiment: (§1) Affinity On-target Cellular interaction: (inhibition of fluorogenic substrate cleavage, U937 cell) EUB0002750aCl DPP7; format: functional, cell-based, U-937
Dipeptidyl peptidase 2 [4] = biological target: T2, Dipeptidyl peptidase 2; experiment: as §1; format: functional, cell-based, U-937; remark: listed apart in the source
[5] = biological target: Monocarboxylate transporter 8 (Homo sapiens, UniProt P36021); experiment: Affinity On-target Cellular interaction: (Inhibition of radiolabelled [125I]T3 uptake by target expressed in MDCK1 cells) EUB0002712a SLC16A2; format: functional, cell-based, MDCK-I
Monocarboxylate transporter 8, sequence (P36021 whole entry): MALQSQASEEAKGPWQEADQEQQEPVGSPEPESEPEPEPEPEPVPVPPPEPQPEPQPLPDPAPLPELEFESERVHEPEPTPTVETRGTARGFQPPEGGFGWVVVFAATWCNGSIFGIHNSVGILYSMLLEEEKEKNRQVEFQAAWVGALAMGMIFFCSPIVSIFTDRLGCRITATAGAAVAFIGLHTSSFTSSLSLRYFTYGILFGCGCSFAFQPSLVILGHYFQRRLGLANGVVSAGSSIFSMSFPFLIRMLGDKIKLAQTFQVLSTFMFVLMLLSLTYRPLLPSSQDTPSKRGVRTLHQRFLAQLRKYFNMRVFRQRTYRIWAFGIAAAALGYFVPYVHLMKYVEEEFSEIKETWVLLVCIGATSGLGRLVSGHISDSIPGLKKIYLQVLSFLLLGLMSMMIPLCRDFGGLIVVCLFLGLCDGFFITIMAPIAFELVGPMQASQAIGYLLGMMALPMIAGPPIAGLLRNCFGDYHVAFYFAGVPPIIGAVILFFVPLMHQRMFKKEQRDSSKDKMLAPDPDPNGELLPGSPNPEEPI

[6] = biological target: Na(+)/citrate cotransporter (Homo sapiens, UniProt Q86YT5); experiment: Affinity On-target Cellular interaction: (Radiolabelled uptake assay with […], HEK293 cells) EUB0002721a SLC13A5; format: functional, cell-based
Na(+)/citrate cotransporter, sequence (Q86YT5 whole entry): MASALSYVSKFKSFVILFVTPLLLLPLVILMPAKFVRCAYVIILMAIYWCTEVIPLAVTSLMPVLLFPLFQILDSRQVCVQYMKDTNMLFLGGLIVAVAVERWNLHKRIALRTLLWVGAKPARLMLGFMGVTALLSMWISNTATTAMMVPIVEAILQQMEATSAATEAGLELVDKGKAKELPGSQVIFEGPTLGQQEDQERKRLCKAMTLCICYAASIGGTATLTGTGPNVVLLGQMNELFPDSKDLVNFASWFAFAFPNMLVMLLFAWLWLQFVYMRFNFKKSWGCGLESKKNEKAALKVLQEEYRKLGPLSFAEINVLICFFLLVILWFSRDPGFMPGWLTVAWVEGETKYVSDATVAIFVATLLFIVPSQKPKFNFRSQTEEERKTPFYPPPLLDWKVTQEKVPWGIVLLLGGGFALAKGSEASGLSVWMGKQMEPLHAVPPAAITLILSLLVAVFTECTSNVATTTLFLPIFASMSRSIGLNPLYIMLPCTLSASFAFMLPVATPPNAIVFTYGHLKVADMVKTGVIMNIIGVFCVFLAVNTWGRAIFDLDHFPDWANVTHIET

Acid ceramidase [7] = biological target: T1, Acid ceramidase; experiment: Affinity On-target Cellular interaction: (Inhibition of ASAH1 in A375 cell lysates overexpressing ASAH1) EUB0002723a ASAH1; format: functional, subcellular, A-375
[8] = biological target: T3, Monocarboxylate transporter 4 (Homo sapiens, UniProt O15427); experiment: (§2) Affinity On-target Cellular interaction: (Inhibition of lactate import in MDA-MB-231 cells) EUB0002761a SLC16A3; format: functional, cell-based
T3 sequence (O15427 whole entry): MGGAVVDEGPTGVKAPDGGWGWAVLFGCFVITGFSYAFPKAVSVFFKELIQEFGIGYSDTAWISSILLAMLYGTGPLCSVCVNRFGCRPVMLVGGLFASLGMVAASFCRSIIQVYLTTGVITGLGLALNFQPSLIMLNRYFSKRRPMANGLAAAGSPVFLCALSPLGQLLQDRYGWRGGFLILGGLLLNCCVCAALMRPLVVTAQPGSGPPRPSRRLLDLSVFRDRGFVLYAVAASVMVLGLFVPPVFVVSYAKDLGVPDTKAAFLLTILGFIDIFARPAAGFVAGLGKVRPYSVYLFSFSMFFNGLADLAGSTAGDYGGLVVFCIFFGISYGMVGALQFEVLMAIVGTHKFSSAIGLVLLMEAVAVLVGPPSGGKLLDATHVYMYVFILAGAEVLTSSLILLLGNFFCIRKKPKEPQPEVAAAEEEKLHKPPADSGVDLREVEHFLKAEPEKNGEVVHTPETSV

[9] = biological target: T3, Monocarboxylate transporter 4; experiment: as §2; format: functional, cell-based; remark: listed apart in the source
[10] = biological target: Sodium/hydrogen exchanger 3 (Homo sapiens, UniProt P48764); experiment: Affinity On-target Cellular interaction: (Inhibition of Na+/H+ exchange, detection of fluorescence changes in acridine orange pH indicator, mouse fibroblast L cell line) EUB0002709aCl SLC9A3; format: functional, cell-based, LAP1
Sodium/hydrogen exchanger 3, sequence (P48764 whole entry): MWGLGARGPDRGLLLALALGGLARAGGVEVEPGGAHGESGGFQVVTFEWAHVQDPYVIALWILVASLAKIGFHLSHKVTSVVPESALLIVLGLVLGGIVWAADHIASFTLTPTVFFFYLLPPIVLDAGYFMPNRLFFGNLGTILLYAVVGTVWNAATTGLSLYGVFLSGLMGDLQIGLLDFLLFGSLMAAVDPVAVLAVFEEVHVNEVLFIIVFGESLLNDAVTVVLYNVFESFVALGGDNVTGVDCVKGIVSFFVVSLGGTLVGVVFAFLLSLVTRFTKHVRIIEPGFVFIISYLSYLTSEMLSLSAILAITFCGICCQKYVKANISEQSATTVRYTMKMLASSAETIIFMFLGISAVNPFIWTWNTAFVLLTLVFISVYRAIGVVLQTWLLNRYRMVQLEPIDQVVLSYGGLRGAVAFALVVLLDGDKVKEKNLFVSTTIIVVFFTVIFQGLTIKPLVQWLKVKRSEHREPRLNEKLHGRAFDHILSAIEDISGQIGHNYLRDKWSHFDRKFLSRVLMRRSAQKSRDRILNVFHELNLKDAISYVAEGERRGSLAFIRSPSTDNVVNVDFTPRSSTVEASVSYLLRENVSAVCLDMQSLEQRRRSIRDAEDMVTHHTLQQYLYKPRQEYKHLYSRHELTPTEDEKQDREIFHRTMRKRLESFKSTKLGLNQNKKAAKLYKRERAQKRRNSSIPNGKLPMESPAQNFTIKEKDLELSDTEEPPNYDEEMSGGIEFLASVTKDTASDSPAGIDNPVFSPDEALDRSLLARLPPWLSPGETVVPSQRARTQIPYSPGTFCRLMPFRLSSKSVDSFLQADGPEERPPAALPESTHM

Zinc transporter SLC39A7 = Zinc transporter SLC39A7 (Homo sapiens, UniProt Q92504); experiment: Affinity On-target Cellular interaction: (HES-LUC reporter gene assay, U2OS cells) EUB0002669a SLC39A7; format: functional, cell-based
Zinc transporter SLC39A7, sequence (Q92504 whole entry): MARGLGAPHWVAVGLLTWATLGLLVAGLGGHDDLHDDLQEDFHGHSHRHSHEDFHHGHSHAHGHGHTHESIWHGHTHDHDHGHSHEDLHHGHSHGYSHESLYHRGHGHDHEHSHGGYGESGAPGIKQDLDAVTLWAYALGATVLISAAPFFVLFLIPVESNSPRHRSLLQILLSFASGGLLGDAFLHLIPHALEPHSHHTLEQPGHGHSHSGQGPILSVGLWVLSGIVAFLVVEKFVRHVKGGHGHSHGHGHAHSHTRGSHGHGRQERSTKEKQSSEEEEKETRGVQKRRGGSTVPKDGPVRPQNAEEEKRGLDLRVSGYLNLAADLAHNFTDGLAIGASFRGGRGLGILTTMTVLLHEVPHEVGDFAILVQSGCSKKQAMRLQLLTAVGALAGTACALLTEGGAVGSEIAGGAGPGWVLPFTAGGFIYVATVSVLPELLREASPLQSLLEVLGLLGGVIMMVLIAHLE

Structure (SMILES): N=C(N)NC(=O)c1cnn(-c2cccc3ncccc23)c1C1CC1
pIC50 [2]: 7.85

Structure (SMILES): O=C(NCc1ccc(Cl)cc1)C1CCN(S(=O)(=O)c2cc(Cl)cc(Cl)c2)CC1
pIC50 [6]: < 4.00

Structure (SMILES): CC(C)(OCc1cc(-c2cccc(OC3CC3)c2)n(-c2ccccc2Cl)n1)C(=O)O
pIC50 [8]: 7.72 | pIC50 [9]: 8.07

Structure (SMILES): O=C1Nc2ccccc2C2(CCN(CC(Cc3ccccc3)Nc3nc4ccc(F)cc4s3)CC2)N1 (stereo unspecified)
pIC50 (Zinc transporter SLC39A7): 6.89

Next, values leading:

pKi (Acid ceramidase [1]): 7.53
Structure (SMILES): CCCCCCCCCCCCC/C=C/[C@@H](O)[C@H](CO)NC(=O)CBr

pIC50 (Dipeptidyl peptidase 2 [3]): 9.68 | pIC50 (Dipeptidyl peptidase 2 [4]): 9.85
Structure (SMILES): N[C@@H](CCNCc1ccc(Cl)cc1)C(=O)N1CCCCC1

pIC50 [5]: 6.96
Structure (SMILES): COc1cc([C@@H]2Oc3c(O)cc([C@H]4Oc5cc(O)cc(O)c5C(=O)[C@@H]4O)cc3[C@H]2CO)ccc1O [SILICRISTIN A]

pKi (Acid ceramidase [7]): 7.40
Structure (SMILES): CCCCCCCCCCCCC/C=C/[C@@H](O)[C@H](CO)NC(=O)CCl

pIC50 [10]: 7.70
Structure (SMILES): CC(=Cc1cc(C)ccc1C=C(C)C(=O)NC(=N)N)C(=O)N=C(N)N
